Assays:
[1] = tested on: Chrysanthemum cv Herby Mixed; assay: Flower bud thinning, Chrysanthemum cv Herby Mixed: auxin/auxin precursor with or without acetaminophen; assay type: in vivo; details: for Mean Number of Buds/plant: auxins/precursors each at 10^−2 Molar solutions, AC at 3 g per hectare equivalent, applied 2 Dec. 2009 (first bud), measured 12 Jan. 2010 (flowering); for % Improvement over control ie (C) minus (A) or (B)/(C × 100): reduction of buds/plant against Control (C)
Description: Cultural Details: plants were sown in a commercial seed compost and then “pricked out” into a professional grade all-purpose compost in 9 cm pots set out in a randomized block design. Normal daylight plus supplementary lighting to provide a minimum of 10 hours per day. Heating was given to a minimum of 60 degrees Fahrenheit during the day and 40 degrees F. at night.
Sowing Date: 5 Oct. […] Application Date: 2 Dec. […] Measurement Date: 12 Jan. […] Measurement: Number of buds per plant.
A number of auxins or auxin precursors were applied, each at 10^−2 Molar solutions. Addition of acetaminophen (AC) was at 3 g per hectare equivalent in each test.

[2] = tested on: Chrysanthemum cv Herby Mixed; assay: Flower bud thinning, Chrysanthemum cv Herby Mixed: agrochemically acceptable additives with AN or AN + AC; assay type: in vivo; details: for Mean Number of Buds/plant: AN 1 g, AC 3 g actives per hectare in 250 litres water, additive per ha: Glucose 150 g, Succinic acid 50 g, Ascorbic acid 50 g, Corn oil 500 g, L-arginine 30 g, applied 4 Feb. 2010 (first bud), measured 12 Mar. 2010
Description: Cultural Details: plants were sown in a commercial seed compost and then “pricked out” into a professional grade all-purpose compost in 9 cm pots set out in a randomized block design. Normal daylight plus supplementary lighting to provide a minimum of 10 hours per day. Heating was given to a minimum of 60 degrees Fahrenheit during the day and 40 degrees at night. Certain agrochemically acceptable additives, as examples (rates per ha provided in the Table below), were added to either anthranilic acid ([…], applied in 250 litres water per hectare, […]) or anthranilic acid plus acetaminophen (1 gram per litre and 3 gram per litre solution respectively, applied in 250 litres water per hectare, =1 g and 3 g actives total respectively per hectare).
Sowing Date: 26 Oct. 2009, in plugs. Application Date: 4 Feb. 2010 (first bud). Measurement Date: 12 Mar. 2010 (flowering). Measurement: Number of buds per plant.

| SMILES | Mean Number of Buds/plant [1] | % Improvement over control ie (C) minus (A) or (B)/(C × 100) [1] | Mean Number of Buds/plant [2] | % Improvement over untreated ([2]; reduction of buds/plant against Untreated) |
| --- | --- | --- | --- | --- |
| COC(=O)c1ccccc1N [Anthranilic acid methyl ester] | 2.2 | +18.5% |  |  |
| N[C@@H](Cc1c[nH]c2ccccc12)C(=O)O [L-Tryptophan] | 2.4 | +11.1% |  |  |
| Nc1c(O)cccc1C(=O)O [3-Hydroxyanthranilic acid] | 2.5 | +7.4% |  |  |
| CC(=O)Nc1ccc(O)cc1 [AC, N-(4-hydroxypheyl)acetamide, reference compound] | 2.7 |  | 2.8 |  |
| Nc1ccccc1C(=O)[O-].[Na+] [Anthranilic Acid monosodium salt] | 2.3 | +14.8% |  |  |
| NCCc1c[nH]c2ccccc12 [Tryptamine] | 2.7 | +0.0% |  |  |
| NC(=O)Cc1c[nH]c2ccccc12 [Indole-3-acetamide] | 2.3 | +14.8% |  |  |
| CC(N)=O [Acetamide] | 2.3 | +14.8% |  |  |
| Nc1ccccc1C(=O)O [Anthranilic acid, anthranilic acid] | 2.2 | +18.5% | 2.3 | +17.8% |

— patent publication US20120088668A1, “THINNING AGENT” (TAMINCO, NAAMLOZE VENNOOTSCHAP, priority 2009, published 2012)
